IC50, CC50 and EC50 data for five molecules are collected here from publication PMC5408263, “Four Aromatic Sulfates with an Inhibitory Effect against HCV NS3 Helicase from the Crinoid Alloeocomatella polycladia” (Marine Drugs, 2017).

The target in one data set is T1, HCV NS3 helicase (Hepatitis C virus genotype 1a, UniProt P27958).
T1 construct: HCV NS3 protein with helicase activity was expressed and purified as previously described; made in house
Briefly: fluorescence helicase assay based on FRET. Format: biochemical. The conditions noted are these: dsRNA substrate labeled with Alexa Fluor 700 and Black Hole Quencher 3; 240 nM NS3 helicase; 30 min at 37 °C; triplicate; read-out: IC50 against NS3 helicase. Here is the method:
For enzymatic inhibition, we used the fluorescence helicase assay based on fluorescence resonance energy transfer (FRET) to examine NS3 helicase inhibition by Compounds 1–4. […] The measured values in triplicate for each concentration of Compounds 1–4 were averaged and divided by the mean value from the negative control sample that contains DMSO instead of Compounds 1–4 to show the NS3 helicase activity as a percentage.
The fluorescence helicase assay based on FRET was conducted as we previously described, except that we used a DNA capture strand rather than an RNA capture strand for which the sequence was complementary to that of the quencher strand. HCV NS3 protein with helicase activity was expressed and purified as previously described. In the assay, when NS3 helicase unwinds the dsRNA substrate, the DNA capture strand binds to the unwound single-stranded RNA (ssRNA) substrate labeled with Black Hole Quencher 3 and prevents the ssRNA substrate from reannealing to the complementary ssRNA substrate labeled with Alexa Fluor 700. […] Thus, the NS3 helicase activity can be monitored by the real-time measurement of the fluorescence intensity of Alexa Fluor 700 through 30 min incubation at 37 °C by using a SpectraMax Gemini XS microplate reader (Molecular Devices, Sunnyvale, CA, USA). The reaction mixture contained 25 mM MOPS-NaOH (pH 6.5), 3 mM MgCl2, 2 mM dithiothreitol, 4 U RNasin (Promega, Madison, WI, USA), 50 nM dsRNA substrate, 400 nM DNA capture strand, 5 mM ATP, a serial dilution of Compounds 1–4 dissolved in DMSO, and 240 nM NS3 helicase in a total reaction volume of 20 μL. The NS3 helicase activity was calculated as the initial reaction velocity relative to that of the control (in the absence of Compounds 1–4 but in the presence of DMSO). The IC50 value was calculated using KaleidaGraph (Synergy Software, Reading, PA, USA) by fitting plots of relative helicase activity (%) vs. [I] using Equation (1):(1) % Activity = 100/1 + ([I]/IC50)^h where h is the Hill coefficient, and [I] is the inhibitor concentration.

Another data set in a line: Cytotoxicity assay (MTS). Format: cell-based. The conditions noted are these: human, Huh7/Rep-Feo cells, 72 h post-treatment, read-out: CC50 (50% cytotoxicity concentration). Here is the method:
(§1) Further, we investigated the effect of Compounds 2 and 3 on both viral replication and cell growth in the HCV subgenomic replicon cell line Huh7/Rep-Feo (genotype 1b, N strain). […] This was likely due to its low membrane permeability caused by the negatively charged sulfate group within the molecule in aqueous solution.
Huh7/Rep-Feo cells were seeded at a density of 1 × 10^4 cells per well in a 96-well plate and then incubated at 37 °C for 24 h. Compounds 2 and 3 were added to the culture medium to yield various concentrations and were then harvested 72 h post-treatment. Cell viability was determined by a dimethyl thiazolcarboxymethoxyphenyl sulfophenyltetrazolium (MTS) assay using a CellTiter 96 aqueous one-solution cell proliferation assay kit (Promega), according to the manufacturer’s protocol.

The subject of data set [1] is HCV subgenomic replicon cell line Huh7/Rep-Feo (genotype 1b, N strain). Briefly: HCV replicon assay (luciferase). The note with it: Hepatitis C virus, Huh-7, 72 h post-treatment, luciferase activity, read-out: EC50 (50% effective concentration), suppression of HCV replication. Format: cell-based. How it is done:
as §1
The Huh7/Rep-Feo cell line harboring the subgenomic replicon RNA of the N strain (genotype 1b) was seeded at 2 × 10^4 cells per well in a 48-well plate and incubated at 37 °C for 24 h. A serial dilution of Compounds 2 and 3 was added to each well of the plate. The treated cells were harvested 72 h post-treatment and lysed in cell culture lysis reagent (Promega, Madison, WI, USA). Luciferase activity in the harvested cells was estimated with a luciferase assay system (Promega). The resulting luminescence was detected by a Luminescencer-JNR AB-2100 (ATTO, Tokyo, Japan). The anti-HCV activity was calculated as the intensity of the luminescence relative to that of the control (in the absence of Compounds 2 and 3 but in the presence of DMSO).
On the technique in general: A replicon is a self-replicating genome or part of one, used to study replication in cells.

In data set [2] the test system is hepatitis C virus (HCV) NS3 helicase. The note with it: authentic molecule; read-out: IC50 against NS3 helicase; cited from earlier work.

Usually IC50 stands for the concentration that inhibits the measured activity by half.

Structures can show the parent of a compound that is named as a salt.

T1 sequence (P27958 1027-1657): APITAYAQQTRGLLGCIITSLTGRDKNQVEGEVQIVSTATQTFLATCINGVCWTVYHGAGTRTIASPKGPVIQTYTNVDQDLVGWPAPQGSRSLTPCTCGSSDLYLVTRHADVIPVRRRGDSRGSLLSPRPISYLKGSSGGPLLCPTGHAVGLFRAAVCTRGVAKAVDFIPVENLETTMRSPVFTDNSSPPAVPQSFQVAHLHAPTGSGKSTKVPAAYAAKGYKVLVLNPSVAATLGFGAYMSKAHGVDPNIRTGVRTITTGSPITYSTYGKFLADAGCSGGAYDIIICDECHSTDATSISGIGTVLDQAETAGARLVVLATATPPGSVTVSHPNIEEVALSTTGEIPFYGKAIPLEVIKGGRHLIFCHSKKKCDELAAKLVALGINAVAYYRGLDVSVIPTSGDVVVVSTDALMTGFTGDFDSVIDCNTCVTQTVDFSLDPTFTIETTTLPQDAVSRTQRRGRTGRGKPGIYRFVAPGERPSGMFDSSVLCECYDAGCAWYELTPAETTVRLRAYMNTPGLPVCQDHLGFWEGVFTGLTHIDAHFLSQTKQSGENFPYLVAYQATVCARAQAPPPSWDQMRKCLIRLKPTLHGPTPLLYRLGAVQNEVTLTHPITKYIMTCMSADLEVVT

As to `Cc1cc(O)c2c(=O)c3c(O)cc(OS(=O)(=O)O)cc3cc-2o1` [Compound 1], the concentration for half-maximal inhibition (IC50) on HCV NS3 helicase worked out at 71 µM.
With `CCCc1cc(O)c2c(=O)c3c(O)cc(OS(=O)(=O)O)cc3cc-2o1` [Compound 2], in the data set “Cytotoxicity assay (MTS)”, the CC50 at 72 h turned out to be 52 µM. Further, the EC50 in data set [1] came out at 57 µM. Further, at HCV NS3 helicase, the half-maximal inhibitory concentration (IC50) came out at 95 µM.
Turning to `Cc1cc(O)c2c(=O)c3c(O)c(-c4c(OS(=O)(=O)O)cc(O)c5c(=O)c6c(O)cc(C)oc-6cc45)c(OS(=O)(=O)O)cc3cc-2o1` [Compound 3], the CC50 at 72 h in the data set “Cytotoxicity assay (MTS)” worked out at 70 µM. Further, in data set [1], the EC50 came to 67 µM. Also, the IC50 at HCV NS3 helicase came to 7 µM.
As to `CCCc1cc(O)c2c(=O)c3c(O)c(-c4c(OS(=O)(=O)O)cc(O)c5c(=O)c6c(O)cc(C)oc-6cc45)c(OS(=O)(=O)O)cc3cc-2o1` [Compound 4], the IC50 on HCV NS3 helicase is 5 µM.
Consider `CC(C)CCC[C@@H](C)[C@H]1CC[C@H]2[C@@H]3CC=C4C[C@@H](OS(=O)(=O)O)CC[C@]4(C)[C@H]3CC[C@]12C` [cholesterol sulfate], for which, in data set [2], the IC50 was 1.7 ± 0.2 µM.
